One compound from US7880010B2, “Crystalline forms of a dimethylphenyl compound” (Theravance, Inc., priority 2006, dated 2011) can be followed below.

For one assay, the target named is T1, hM2 receptor (Homo sapiens, UniProt P08172).
T1 construct: expressed in transfected cells; host or cells: CHO / CHO-K1
T1 sequence (P08172 1-466): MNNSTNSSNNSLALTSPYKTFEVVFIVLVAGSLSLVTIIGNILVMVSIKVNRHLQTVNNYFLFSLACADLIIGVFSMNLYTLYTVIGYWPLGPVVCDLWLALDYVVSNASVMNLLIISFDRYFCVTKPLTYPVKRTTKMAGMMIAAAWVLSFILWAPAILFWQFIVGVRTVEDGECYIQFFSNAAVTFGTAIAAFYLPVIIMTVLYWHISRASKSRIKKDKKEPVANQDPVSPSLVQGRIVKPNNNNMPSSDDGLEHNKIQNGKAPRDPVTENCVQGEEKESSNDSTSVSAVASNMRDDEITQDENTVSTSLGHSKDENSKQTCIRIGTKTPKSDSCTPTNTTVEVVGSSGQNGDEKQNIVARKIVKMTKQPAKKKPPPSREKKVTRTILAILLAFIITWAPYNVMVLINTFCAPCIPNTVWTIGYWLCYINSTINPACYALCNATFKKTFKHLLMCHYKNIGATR
Briefly: Blockade of agonist-mediated [35S]GTPγS binding (Assay B). It is filed as biochemical. The following applies: CHO-K1 cells expressing the hM2 receptor. As to the method: In this functional assay, the functional potency of a test compound as an antagonist of the hM2 receptor was determined by measuring the ability of the test compound to block oxotremorine-stimulated [^35S]GTPγS binding in CHO-K1 cells expressing the hM2 receptor.
At the time of use, frozen membranes were thawed and then diluted in assay buffer with a final target tissue concentration of 5 to 10 μg protein per well. The membranes were briefly homogenized using a Polytron PT-2100 tissue disrupter and then added to the assay plates.
The EC90 value (effective concentration for 90% maximal response) for stimulation of [^35S]GTPγS binding by the agonist oxotremorine was determined in each experiment.
To determine the ability of a test compound to inhibit oxotremorine-stimulated [^35S]GTPγS binding, the following was added to each well of 96 well plates: 25 μL of assay buffer with [^35S]GTPγS (0.4 nM), 25 μL of oxotremorine(EC90) and GDP (3 uM), 25 μL of diluted test compound and 25 μL CHO cell membranes expressing the hM2 receptor. […] Microscint-20 scintillation liquid (50 μL) was added to each well, and each plate was sealed and radioactivity counted on a Topcounter (PerkinElmer). Data were analyzed by nonlinear regression analysis with the GraphPad Prism Software package (GraphPad Software, Inc., San Diego, Calif.) using the non-linear regression, one-site competition equation. […]

For assay [1], the target named is T2, human β2 adrenergic receptor (endogenous, BEAS-2B cells) (Homo sapiens, UniProt P07550).
T2 construct: using a cell line expressing endogenous levels of the β2 adrenergic receptor; host or cells: BEAS-2B human lung epithelial cell line
The assay is described as follows: Whole-cell cAMP Flashplate assay with lung epithelial cell line (BEAS-2B). Type of assay: cell-based. The procedure: In this assay, the agonist potency and intrinsic activity of a test compound were determined using a cell line expressing endogenous levels of the β2 adrenergic receptor.
On the day of the assay, cells were rinsed with PBS, lifted by scraping with 5 mM EDTA in PBS, and counted. Cells were pelleted by centrifugation at 1,000 rpm and re-suspended in stimulation buffer pre-warmed to 37° C. at a final concentration of 600,000 cells/mL. Cells were used at a final concentration of 100,000 to 120,000 cells/well in this assay. […] Test compounds were tested in the assay at 11 different concentrations, ranging from 10 μM to 10 pM. Reactions were incubated for 10 min at 37° C. and stopped by addition of 100 μL of ice-cold detection buffer. Plates were sealed, incubated over night at 4° C. and counted the next morning in a Topcount scintillation counter (Packard BioScience Co., Meriden, Conn.). […] Data were analyzed by nonlinear regression analysis with the GraphPad Prism Software package (GraphPad Software, Inc., San Diego, Calif.) using the 4-parameter model for sigmoidal dose-response.

Structures are written as SMILES. Some results are limits rather than exact numbers.

T2 sequence (P07550 whole entry): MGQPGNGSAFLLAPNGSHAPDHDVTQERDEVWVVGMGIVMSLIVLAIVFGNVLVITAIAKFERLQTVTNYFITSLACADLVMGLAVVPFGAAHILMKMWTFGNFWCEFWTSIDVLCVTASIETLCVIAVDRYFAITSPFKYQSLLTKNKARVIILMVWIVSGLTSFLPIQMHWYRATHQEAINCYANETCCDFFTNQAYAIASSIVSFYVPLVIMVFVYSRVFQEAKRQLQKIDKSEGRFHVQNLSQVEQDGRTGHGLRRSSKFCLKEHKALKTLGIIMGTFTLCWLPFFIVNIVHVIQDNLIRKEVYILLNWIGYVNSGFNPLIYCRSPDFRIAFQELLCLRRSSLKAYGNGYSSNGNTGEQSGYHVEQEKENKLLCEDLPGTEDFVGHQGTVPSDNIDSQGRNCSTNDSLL

`Cc1cc(NC(=O)CCN2CCC(OC(=O)Nc3ccccc3-c3ccccc3)CC2)c(C)cc1CNC[C@H](O)c1ccc(O)c(NC=O)c1` [compound of formula I, biphenyl-2-ylcarbamic acid 1-[2-(4-{[(R)-2-(3-formylamino-4-hydroxyphenyl)-2-hydroxyethylamino]methyl}-2,5-dimethylphenylcarbamoyl)ethyl]-piperidin-4-yl ester]: on hM2 receptor, the “Kobs for blockade of oxotremorine-stimulated [35S]GTPγS binding” value was “less than 10 nM”. The EC50 in assay [1] (cAMP) was < 10 nM. In addition, in assay [1] (compared with full β2 agonist isoproterenol (1.0)), the intrinsic activity result is listed as “greater than 0.3”.
